{"source": "patent US11229618B2", "about": "(Amarin Pharmaceuticals Ireland Limited, priority 2012, dated 2022)", "experiment": "Phase 1 multidose pharmacokinetic study: unesterified EPA in plasma (LC-MS/MS)", "assay_type": "in vivo, human", "conditions": "for Unesterified EPA in plasma, CL/F: day 28", "description": "A study to characterize the pharmacokinetics of ethyl eicosapentaenoate in plasma and red blood cells after multiple-dose administration of IPE at 2 g per day and 4 g per day was performed in healthy adult male and female humans.\nThe study was a phase 1, open-label, randomized, multidose study in healthy, nonsmoking men and women aged>18 and ≤55 years with a body mass index (BMI)>18 and ≤30 kg/m′. Exclusion criteria included use within 6 weeks prior to randomization through study end of any lipid-altering medications or supplements, including statins, niacin at levels of greater than 200 mg/day, fibrates, ezetimibe, bile acid sequestrants, omega-3 fatty acid medications, and supplements or foods enriched with omega-3 fatty acids (no more than 2 servings of fish per week were permitted).\nFollowing a 14-day screening period, subjects entered a 28-day treatment period and were randomized to one of four IPE dose regimen treatment groups as shown in FIG. 1. Group 1 received IPE 2 g daily (1000-mg capsules; twice-daily [BID] regimen); Group 2 received IPE 4 g daily (1000-mg capsules; BID regimen); Group 3 received IPE 2 g daily (1000-mg capsules; once-daily [QD] regimen); and Group 4 received IPE 2 g daily (500-mg capsules; BID regimen). Treatment was administered orally, with or following a meal in the morning and evening for BID regimens, or in the morning only for the QD regimen. Subjects then entered an 18-day post-treatment pharmacokinetic sampling period.\nFasting EPA concentrations were measured with a validated liquid chromatography with tandem mass spectrometry (LC-MS/MS) method in plasma and RBCs prior to the morning dose (days 1, 14, 26, 28) and at serial time points (1, 3, 5, 6, 8, 10, 12, 24, 48, 72, 120, 192, 312, and 432 hours) after the morning dose on day 28. After the last dose on day 28, EPA concentrations were followed for 18 days to estimate the expected long half-life of EPA. Total plasma EPA included all EPA forms (unesterified EPA and that incorporated in phospholipids, triacylglycerols, and cholesteryl esters). In RBCs, EPA was measured in the cell membrane, where EPA is mainly incorporated in phospholipids.\nFor total EPA in plasma and RBCs, lipids were isolated by acid/methanol/chloroform extraction followed by centrifugation and purified by isohexane and solid-phase extraction after confirmed complete lipid hydrolysis and transmethylation (acid/methanol, 50° C. overnight). For unesterified EPA in plasma, 25 μL of an inhibitor solution (0.5 g sodium fluoride, 1.0 g L-ascorbic acid, and 0.25 g 5-methylisoxazole-3-carboxylic acid per 10 mL water) was included per 1 mL plasma sample to prevent degradation and lipids were isolated by centrifugation after methanol/chloroform extraction (without hydrolysis or methylation) and further purified by protein precipitation and solid-phase extraction. Quantitation utilized linolenic acid as an internal standard and EPA as the standard for the calibration curve; for total plasma EPA, RBC EPA, and unesterified EPA, the lower limits of quantitation were 10 μg/mL, 5 μg/mL, and 50 ng/mL, respectively. EPA concentrations were measured at Charles River Laboratories Ltd (Elphinstone Research Center, Tranent, Edinburgh, Scotland, UK).\nUnless otherwise specified, all reported parameters are based on baseline-subtracted concentrations (baseline is due to EPA derived from dietary sources).", "key": {"[1]": {"conditions": "about 2 g orally twice per day, human"}}, "data": [{"smiles": "CC/C=C\\C/C=C\\C/C=C\\C/C=C\\C/C=C\\CCCC(=O)OCC", "note": "[IPE, all-cis eicosa-5,8,11,14,17-pentaenoic acid ethyl ester]", "values": [{"measurement": "Unesterified EPA in plasma, CL/F", "setting": "Group 1: IPE 2 g/d 1 × 1000 mg BID", "result": "364,513 mL/hr"}, {"measurement": "Unesterified EPA in plasma, CL/F", "setting": "Group 2: IPE 4 g/d 2 × 1000 mg BID", "result": "234,329 mL/hr"}, {"measurement": "Unesterified EPA in plasma, CL/F", "setting": "Group 3: IPE 2 g/d 2 × 1000 mg QD", "result": "241,855 mL/hr"}, {"measurement": "Unesterified EPA in plasma, CL/F", "setting": "Group 4: IPE 2 g/d 2 × 500 mg BID", "result": "326,622 mL/hr"}, {"measurement": "mean plasma CL/F of unesterified eicosapentaenoic acid", "setting": "about 1 g orally twice per day, human", "result": "about 364,513+/−214,003 mL/h"}, {"measurement": "mean plasma AUC0-24h of unesterified eicosapentaenoic acid", "setting": "[1]", "result": "about 18.4+/−4.6 μg·h/mL"}, {"measurement": "mean plasma CL/F of unesterified eicosapentaenoic acid", "setting": "[1]", "result": "about 234,329+/−81,639 mL/h"}, {"measurement": "mean plasma Calm of unesterified eicosapentaenoic acid", "setting": "[1]", "result": "about 1.06+/−0.56 μg/mL"}, {"measurement": "mean plasma Cmax of unesterified eicosapentaenoic acid", "setting": "[1]", "result": "about 1.4+/−0.41 μg/mL"}, {"measurement": "mean plasma T1/2 of unesterified eicosapentaenoic acid", "setting": "[1]", "result": "about 97.2+/−36.5 hours"}, {"measurement": "median plasma Tmax of unesterified eicosapentaenoic acid", "setting": "[1]", "result": "about 5 hours"}]}]}
